Experiments:
Assay in all cases: relative viability (nuclei count vs DMSO), 5 days (fraction); higher = more cells survive
Bortezomib + Luminespib = compound: CC(C)C[C@H](NC(=O)[C@H](Cc1ccccc1)NC(=O)c1cnccn1)B(O)O [Bortezomib] + CCNC(=O)c1noc(-c2cc(C(C)C)c(O)cc2O)c1-c1ccc(CN2CCOCC2)cc1 [Luminespib] (partner 0.01 µM)
In short: (§1)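 Medians of duplicate plates are given as relative viability. That measure is the nuclei count in treated wells divided by the count in vehicle wells. Counts were taken on 4× images of lung cancer cell lines in 1536-well plates, 5 days after pin-tool dosing the day after seeding with one drug alone or a fixed anchor-drug dose plus five library-drug doses (not always all listed) in √10 steps.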

[1] = compound: CC1=CC(=NN1)NC2=CC(=NC(=N2)/C=C/C3=CC=CC=C3)N4CCN(CC4)C + CC(=O)c1c(C)c2cnc(Nc3ccc(N4CCNCC4)cn3)nc2n(C2CCCC2)c1=O [Palbociclib] (partner 0.5 µM)
In short: as §1

Bortezomib + Linsitinib = compound: CC(C)C[C@H](NC(=O)[C@H](Cc1ccccc1)NC(=O)c1cnccn1)B(O)O [Bortezomib] + C[C@]1(O)C[C@@H](c2nc(-c3ccc4ccc(-c5ccccc5)nc4c3)c3c(N)nccn32)C1 [Linsitinib] (partner 1 µM)
In short: as §1

Bortezomib + OSI-027 = compound: CC(C)C[C@H](NC(=O)[C@H](Cc1ccccc1)NC(=O)c1cnccn1)B(O)O [Bortezomib] + COc1cccc2cc(-c3nc([C@H]4CC[C@H](C(=O)O)CC4)n4ncnc(N)c34)[nH]c12 [OSI-027] (partner 0.5 µM)
In short: as §1

Cell Line | relative viability (Bortezomib + Luminespib; first compound 0.0002 µM) | relative viability (Bortezomib + Luminespib; first compound 0.002 µM) | relative viability (Bortezomib + Luminespib; first compound 0.006325 µM) | relative viability (Bortezomib + Luminespib; first compound 0.02 µM) | relative viability ([1]; first compound 0.08 µM) | relative viability ([1]; first compound 0.253 µM) | relative viability ([1]; first compound 0.8 µM) | relative viability ([1]; first compound 2.53 µM) | relative viability ([1]; first compound 8 µM) | relative viability (Bortezomib + Linsitinib; first compound 0.0002 µM) | relative viability (Bortezomib + Linsitinib; first compound 0.002 µM) | relative viability (Bortezomib + Linsitinib; first compound 0.006325 µM) | relative viability (Bortezomib + Linsitinib; first compound 0.02 µM) | relative viability (Bortezomib + OSI-027; first compound 0.0002 µM) | relative viability (Bortezomib + OSI-027; first compound 0.002 µM) | relative viability (Bortezomib + OSI-027; first compound 0.006325 µM) | relative viability (Bortezomib + OSI-027; first compound 0.02 µM) | relative viability (Bortezomib + Linsitinib; first compound 0.000632 µM) | relative viability (Bortezomib + OSI-027; first compound 0.000632 µM) | relative viability (Bortezomib + Luminespib; first compound 0.000632 µM)
NCI-H322M | 0.736 | 0.729 | 0.386 | 0.322 | 0.444 | 0.572 | 0.458 | 0.336 | 0.287 | 0.906 | 0.999 | 0.831 | 0.294 | 0.524 | 0.519 | 0.288 | 0.27 |  |  | 
NCI-H358 | 0.285 | 0.349 | 0.307 | 0.0995 | 0.12 | 0.144 | 0.133 | 0.0673 | 0.072 | 0.755 | 0.625 | 0.162 | 0.141 | 0.849 | 0.703 | 0.0722 | 0.0716 | 0.622 | 0.547 | 
NCI-H441 | 0.331 | 0.236 | 0.159 | 0.168 | 0.169 | 0.214 | 0.203 | 0.115 | 0.103 | 0.497 | 0.406 | 0.343 | 0.103 | 0.648 | 0.233 | 0.154 | 0.188 | 0.41 | 0.38 | 0.341
NCI-H460 | 0.0335 | 0.033 | 0.0295 | 0.0196 | 0.159 | 0.145 | 0.149 | 0.0195 | 0.0182 | 0.718 | 0.91 | 0.0249 | 0.0133 | 0.561 | 0.64 | 0.126 | 0.021 | 0.772 | 0.478 | 0.0348
NCI-H520 | 0.223 | 0.237 | 0.211 | 0.217 | 0.209 | 0.214 | 0.184 | 0.142 | 0.113 | 1.12 | 0.483 | 0.137 | 0.143 | 0.193 | 0.196 | 0.272 | 0.223 | 0.991 | 0.235 | 0.234
NCI-H647 | 0.198 | 0.136 | 0.0557 | 0.0467 | 0.429 | 0.365 | 0.332 | 0.115 | 0.0496 | 1.09 | 1.12 | 0.0274 | 0.0402 | 0.574 | 0.483 | 0.0304 | 0.0382 | 1.28 | 0.437 | 0.294
NCI-H661 | 0.928 | 0.921 | 0.4 | 0.151 | 0.4 | 0.41 | 0.404 | 0.27 | 0.269 | 0.62 | 0.46 | 0.311 | 0.181 | 0.659 | 0.688 | 0.33 | 0.183 | 0.552 | 0.658 | 0.858
NCI-H727 | 0.374 | 0.358 | 0.382 | 0.279 | 0.641 | 0.628 | 0.672 | 0.691 | 0.409 | 0.354 | 0.408 | 0.189 | 0.0878 | 0.557 | 0.494 | 0.467 | 0.378 | 0.289 | 0.515 | 0.321

Source: the supplement of paper PMC10307832
